The results in this text go back to PMC8286840, “Identifying SARS-CoV-2 antiviral compounds by screening for small molecule inhibitors of Nsp3 papain-like protease” (Biochemical Journal, 2021).

Counter-ions that a name gives are not always drawn. Like-named read-outs stand apart in the source and are kept apart here. Where a SMILES comes first, the peptide text is derived from it. The star is where a group is joined. Cbz = O=C(OCc1ccccc1)*

The target in assay [1] is T1, SARS-CoV-2 PLpro (nsp3 1564–1878) (Severe acute respiratory syndrome coronavirus 2, UniProt P0DTD1). As to the kind of experiment: biochemical. The arrangement: FRET-quenched peptide (Pro3) cleavage by PLpro, 10 min pre-incubation, slope over 20 min, normalised to no-compound control. The settings on record: low concentration screen, read-out: % of control remaining.
Assay [2] concerns the target T1, SARS-CoV-2 PLpro (nsp3 1564–1878). In words: biochemical. Further details: FRET-quenched peptide (Pro3) cleavage by PLpro, 10 min pre-incubation, slope over 20 min, normalised to no-compound control. To be noted: high concentration screen, read-out: % of control remaining.

Take `CCCCCCn1c(O)c(N=NC(=O)c2ccccc2)c2ccccc21` [MDA 19]: the remaining activity at 1.25 µM in assay [1] (Well no.=7099) is 103%. For the same compound, in assay [2] (Well no.=7099), the remaining activity at 3.75 µM amounted to 103%.
As to `O=C1C(=O)N(Cc2ccc(Cl)c(Cl)c2)c2ccccc21` [MDK83190], the remaining activity at 1.25 µM in assay [1] (Well no.=6404) was 101%; in assay [1] (Well no.=8130) it was 94.6%. Also, the values for the remaining activity at 3.75 µM in assay [2] (Well no.=6404) and in assay [2] (Well no.=8130) were 99.4% and 90%, respectively.
With `c1ccc([C@@H]2CCC[C@@H]2NC2=NCCCCCCCCCCC2)cc1` [MDL 12,330A hydrochloride], the remaining activity at 1.25 µM in assay [1] (Well no.=993) stood at 103%. For the same compound, the remaining activity at 3.75 µM in assay [2] (Well no.=993) turned out to be 101%.
On to `NCCC1CCCC(CCN)N1` (stereo not drawn) [MDL 26,630 trihydrochloride], for which the remaining activity at 1.25 µM in assay [1] (Well no.=945) is 103%. The remaining activity at 3.75 µM in assay [2] (Well no.=945) is 104%.
Take `O=C(O)/C(=C/c1c(C(=O)O)[nH]c2cc(Cl)cc(Cl)c12)c1ccccc1` [MDL 105,519]: the remaining activity at 1.25 µM in assay [1] (Well no.=803) was 95%. Moreover, the remaining activity at 3.75 µM in assay [2] (Well no.=803) stood at 93%.
With `CC(C)[C@H](NC(=O)OCc1ccccc1)C(=O)N[C@H](C=O)Cc1ccccc1` [MDL 28170] (Cbz-Val-Phe-aldehyde), the remaining activity at 1.25 µM in assay [1] (Well no.=790) came to 106%. In addition, in assay [2] (Well no.=790), the remaining activity at 3.75 µM came out at 105%.
With `CNC(=O)c1ccc(N2C(=S)N(c3ccc(C#N)c(C(F)(F)F)c3)C(=O)C2(C)C)cc1F` [MDV3100 (Enzalutamide)], the remaining activity at 1.25 µM in assay [1] (Well no.=4759) worked out at 102%. Also, in assay [2] (Well no.=4759), the remaining activity at 3.75 µM turned out to be 104%.
Consider `CC(C)(CCCCCCCCCCC(C)(C)CC(=O)O)CC(=O)O` [MEDICA 16], for which, in assay [1] (Well no.=5805), the remaining activity at 1.25 µM is 91.5%. Besides, the remaining activity at 3.75 µM in assay [2] (Well no.=5805) is 91.6%.
With `N#C/C(=C(/N)Sc1ccc(N)cc1)c1ccccc1C(F)(F)F` [MEK1/2 Inhibitor], the remaining activity at 1.25 µM in assay [1] (Well no.=2562) is 94.4%. In addition, the remaining activity at 3.75 µM in assay [2] (Well no.=2562) came to 96.8%.
As for `O=C1C(Cl)=C(N2C(=O)CCC2=O)C(=O)c2ccccc21` [MEK Inhibitor II], the remaining activity at 1.25 µM in assay [1] (Well no.=2560) was 98%. In assay [2] (Well no.=2560), the remaining activity at 3.75 µM was 98.5%.
Turning to `CC[N+](CC)(CC)CCOc1ccc(/C=C/c2ccccc2)cc1` [MG 624], the remaining activity at 1.25 µM in assay [1] (Well no.=972) was 100%. For the same compound, the remaining activity at 3.75 µM in assay [2] (Well no.=972) came to 101%.
As for `CC(C)C[C@@H](C=O)NC(=O)[C@H](CC(C)C)NC(=O)[C@H](CC(C)C)NC(=O)OCc1ccccc1` [MG-132] (Cbz-Leu-Leu-Leu-aldehyde), the remaining activity at 1.25 µM in assay [1] (Well no.=8436) turned out to be 96.8%. The remaining activity at 3.75 µM in assay [2] (Well no.=8436) worked out at 97.5%.
In the case of `Cn1nc(C(F)(F)F)cc1-c1cnc(N2CCc3cc(S(=O)(=O)Nc4c(F)cc(Cl)cc4F)cc(N4CCCC4=O)c32)nc1` [MGAT2-IN-1], in assay [1] (Well no.=8422), the remaining activity at 1.25 µM was found to be 94.8%. The remaining activity at 3.75 µM in assay [2] (Well no.=8422) turned out to be 93.1%.
For `COc1cc(C(O)CO)ccc1OS(=O)(=O)O` (stereo not drawn) [MHPG sulfate potassium], the remaining activity at 1.25 µM in assay [1] (Well no.=710) is 93%. Besides, the remaining activity at 3.75 µM in assay [2] (Well no.=710) is 90.8%.
With `CC(C)(C)C[C@@H]1N[C@@H](C(=O)N[C@H]2CC[C@H](O)CC2)[C@H](c2cccc(Cl)c2F)[C@]12C(=O)Nc1cc(Cl)ccc12` [MI-773], the remaining activity at 1.25 µM worked out at 96.1% in assay [1] (Well no.=6488) and 102% in assay [1] (Well no.=8278). For the same compound, the remaining activity at 3.75 µM stood at 93% in assay [2] (Well no.=6488) and 97.3% in assay [2] (Well no.=8278).
`CN1CCN(c2ccc3nc(-c4cc(C(C)(C)C)c(OCCCC(=O)NCCCN=[N+]=[N-])c(C(C)(C)C)c4)[nH]c3c2)CC1` [MIR96-IN-1]: in assay [1] (Well no.=7014), the remaining activity at 1.25 µM is 94.6%. Besides, the remaining activity at 3.75 µM in assay [2] (Well no.=7014) turned out to be 81.9%.
For `O=C(ON1C(=O)CCC1=O)N1CCN(C(c2ccc(Cl)cc2)c2ccc(Cl)cc2)CC1` [MJN110], the remaining activity at 1.25 µM in assay [1] (Well no.=5560) was 97.4%. Besides, in assay [2] (Well no.=5560), the remaining activity at 3.75 µM came out at 100%.
As for `O=C(CCCc1ccc(-c2ccccc2F)cc1)Nc1ccc(O)cc1` [MK2a Inhibitor], the remaining activity at 1.25 µM in assay [1] (Well no.=2548) was 94.2%. The remaining activity at 3.75 µM in assay [2] (Well no.=2548) turned out to be 102%.
Take `Cn1ncnc1COc1nn2c(-c3c(F)cccc3F)nnc2cc1C1CCC1` [MK-0343]: the remaining activity at 1.25 µM in assay [1] (Well no.=5828) was 101%. In addition, the remaining activity at 3.75 µM in assay [2] (Well no.=5828) was 102%.
Regarding `O=C1O[C@]2(CC[C@H](C(=O)Nc3ccn(-c4ccccc4F)n3)CC2)c2cnccc21` [MK-0557], in assay [1] (Well no.=6987), the remaining activity at 1.25 µM stood at 104%. Moreover, the remaining activity at 3.75 µM in assay [2] (Well no.=6987) turned out to be 104%.
In the case of `CN(C)C(=O)CCSC(SCCC(=O)O)c1cccc(/C=C/c2ccc3ccc(Cl)cc3n2)c1` (stereo not drawn) [MK-571 (sodium salt)], in assay [1] (Well no.=7859), the remaining activity at 1.25 µM stood at 91.6%. Moreover, in assay [2] (Well no.=7859), the remaining activity at 3.75 µM worked out at 91.2%.
Turning to `O=C(O)CC[C@H]1CC[C@@](c2cc(F)ccc2F)(S(=O)(=O)c2ccc(Cl)cc2)CC1` [MK-0752], the remaining activity at 1.25 µM in assay [1] (Well no.=4639) was determined as 97.6%. For the same compound, the remaining activity at 3.75 µM in assay [2] (Well no.=4639) worked out at 99.5%.
Turning to `CO[C@@H]1COCC[C@@H]1N[C@@H]1CC[C@@](C(=O)N2CCc3ncc(C(F)(F)F)cc3C2)(C(C)C)C1` [MK-0812 (Succinate)], the remaining activity at 1.25 µM in assay [1] (Well no.=8321) worked out at 97.5%. Further, the remaining activity at 3.75 µM in assay [2] (Well no.=8321) was determined as 97.9%.
Regarding `CC(C)c1ccc2c(c1)c(SC(C)(C)C)c(CC(C)(C)C(=O)O)n2Cc1ccc(Cl)cc1` [MK-886 (L-663,536)], in assay [1] (Well no.=8678), the remaining activity at 1.25 µM is 96.7%. Also, the remaining activity at 3.75 µM in assay [2] (Well no.=8678) came out at 94.2%.
For the compound `CC(C)c1ccc2c(c1)c(SC(C)(C)C)c(CC(C)(C)C(=O)O)n2Cc1ccc(Cl)cc1` [MK-886], in assay [1] (Well no.=1018), the remaining activity at 1.25 µM was found to be 105%. Besides, the remaining activity at 3.75 µM in assay [2] (Well no.=1018) worked out at 104%.
For the compound `CN1CC[C@]2(CCN3CCc4c(oc5ccccc45)[C@@H]3C2)N(C)C1=O` [MK-912], the remaining activity at 1.25 µM in assay [1] (Well no.=934) was found to be 101%. The remaining activity at 3.75 µM in assay [2] (Well no.=934) was found to be 104%.
With `O=C(N[C@@H]1CC[C@@H](c2cccc(F)c2F)CN(CC(F)(F)F)C1=O)N1CCC(n2c(=O)[nH]c3ncccc32)CC1` [MK-0974], in assay [1] (Well no.=7709), the remaining activity at 1.25 µM was determined as 102%. Besides, the remaining activity at 3.75 µM in assay [2] (Well no.=7709) is 108%.
Turning to `C=CCn1c(=O)c2cnc(Nc3ccc(N4CCN(C)CC4)cc3)nc2n1-c1cccc(C(C)(C)O)n1` [MK-1775], the remaining activity at 1.25 µM in assay [1] (Well no.=4947) came to 102%. The remaining activity at 3.75 µM in assay [2] (Well no.=4947) stood at 99.7%.
For the compound `CCN1C[C@H](C)n2c(c(O)c3c(=O)n(Cc4ccc(F)c(Cl)c4)nc(C(=O)NC)c32)C1=O` [MK-2048], in assay [1] (Well no.=4731), the remaining activity at 1.25 µM turned out to be 107%. For the same compound, in assay [2] (Well no.=4731), the remaining activity at 3.75 µM is 104%.
In the case of `NC1(c2ccc(-c3nc4ccn5c(=O)[nH]nc5c4cc3-c3ccccc3)cc2)CCC1` [MK-2206 2HCl], in assay [1] (Well no.=4625), the remaining activity at 1.25 µM amounted to 102%. In addition, in assay [2] (Well no.=4625), the remaining activity at 3.75 µM turned out to be 102%.
Consider `CN(C[C@@H]1COCCO1)S(=O)(=O)Nc1ccc2ccc3ncc(-c4cnn(C)c4)cc3c(=O)c2c1` [MK-2461], for which the remaining activity at 1.25 µM in assay [1] (Well no.=4737) stood at 105%. In addition, the remaining activity at 3.75 µM in assay [2] (Well no.=4737) stood at 105%.
